The values that follow come from patent US20230117034A1, “PYRAZOLOTRIAZINES” (Bayer Aktiengesellschaft, priority 2019, published 2023).

Molecules are shown by their SMILES.

In this assay the test system is BRCA1 mRNA expression in CAL-120 cells. Briefly: qRT-PCR assay: BRCA1 mRNA expression in CAL-120. In kind it is cell-based. Particulars: Homo sapiens; Inhibition of BRCA1 mRNA expression in CAL-120 cells; median; read-out: RTqPCR-CAL-120, IC50, BRCA1 (median). How it is done:
3. qRT-PCR Assay: BRCA, ATR, MCL1 in MDA-MB-231, CAL-120
Tissue cultured human MDA-MB-231 human breast cancer cells were plated in 500 microL per well at 200,000 cells/well in a 24 well microtiter plate. After 24 h, the cells were exposed continuously for 24 h to test substances (substances were added with Tecan HP 0300 Dispenser). RNA was prepared using Qiagen RNeasy MiniKit (#74106), RNA was quantified using a NanoDrop Equipment, and 600 nano gamms of RNA was coverted to cDNA using a SuperScript VILO kit (Thermofisher #11755050) followed by qPCR amplification. BRCA1 and ATR gene expression was measured by RT-qPCR and normalised to GAPDH housekeeping gene expression. qPCR primer sets have been purchased from Thermo Fisher Scientific/Applied Biosystems: BRCA1, #Hs 01556193; ATR, #Hs 00992123; GAPDH, #Hs 03929097.
On the technique in general: Real-time PCR tracks product formation cycle by cycle.
Usually IC50 stands for the concentration that gives 50% inhibition. As for `Brc1cnn2c(NCc3nnc(-c4ccccc4)[nH]3)nc(N3CCOCC3)nc12` [Example 24, 8-bromo-2-(morpholin-4-yl)-N-[(5-phenyl-4H-1,2,4-triazol-3-yl)methyl]pyrazolo[1,5-a][1,3,5]triazin-4-amine], the IC50 was 34.5 nM. Next, `Brc1cnn2c(NCc3nc4c([nH]3)CCCC4)nc(N3CCOCC3)nc12` [Example 21, 8-bromo-2-(morpholin-4-yl)-N-[(4,5,6,7-tetrahydro-1H-benzimidazol-2-yl)methyl]pyrazolo[1,5-a][1,3,5]triazin-4-amine]: 211 nM.

Take `Cc1ccnc2[nH]c(CNc3nc(N4CCOCC4)nc4c(Br)cnn34)nc12` [Example 20, 8-bromo-N-[(7-methyl-3H-imidazo[4,5-b]pyridin-2-yl)methyl]-2-(morpholin-4-yl)pyrazolo[1,5-a][1,3,5]triazin-4-amine]: the half-maximal inhibitory concentration (IC50) was determined as 17.7 nM.
